Test results from paper PMC11474028, “Lipopeptide antibiotics disrupt interactions of undecaprenyl phosphate with UptA” (Proceedings of the National Academy of Sciences of the …, 2024).

Tested on: UptA H119A
Assay: Native MS of C55-P binding to UptA mutant H119A
Set-up: species or system Bacillus subtilis
Settings: 5 µM protein, 10 µM C55-P, pH 8.02, 0.05% LDAO, 200 mM ammonium acetate, collisional activation 100 V; three biological replicates
Source text: Conserved arginine residues in the putative membrane reentrant loops of E. coli DedA proteins YqjA (R130) and YghB (R136) are important for the cellular role of these proteins ([36]). […] How these residues impact substrate interactions, however, is not known. Based on the model structure of UptA predicted by AlphaFold, the R112 residue should engage Q64 while R118 is able to form hydrogen bonds with E32, H119, and W146 to potentially stabilize the membrane reentrant loops (Fig. 3A). To test for the impact of these residues on C55-P binding, we generated the E32A, Q64A, R112A, R118A, H119A, and W146A UptA single mutants. After purification of the proteins, using the same protocol as the wild type (WT) (Materials and Methods and SI Appendix, Fig. S5), we equilibrated aliquots of each protein variant (5 µM) with C55-P (10 µM) and recorded spectra using the same instrument settings. […] We additionally generated a double mutant R112E/R118E in which the polarity of both native arginine residues in the wild type are reversed.
Expression and purification of UptA
Plasmids were used to transform chemically competent E. coli C43(DE3) cells (Lucigen) and selected on LB/Agar containing 100 μg/ml ampicillin at 37 °C. Single colonies were used to inoculate 60 mL LB containing 100 μg/ml ampicillin and were grown at 37 °C overnight for 16 h. […]

Compound: CC(C)=CCC/C(C)=C/CC/C(C)=C/CC/C(C)=C\CC/C(C)=C\CC/C(C)=C\CC/C(C)=C\CC/C(C)=C\CC/C(C)=C\CC/C(C)=C\CC/C(C)=C\COP(=O)(O)O [C55-P, undecaprenyl phosphate]
- reduction in C55-P binding intensity compared to wild type, H119A (in words): modest reduction
